{
  "source": "patent US20250064836A1",
  "about": "(priority 2023, published 2025)",
  "molecules": {"B1": {"name": "fremanezumab (antibody, chains of the INN, looked up, V domains shown)", "VH": "EVQLVESGGGLVQPGGSLRLSCAASGFTFSNYWISWVRQAPGKGLEWVAEIRSESDASATHYAEAVKGRFTISRDNAKNSLYLQMNSLRAEDTAVYYCLAYFDYGLAIQNYWGQGTLVTVSS", "VL": "EIVLTQSPATLSLSPGERATLSCKASKRVTTYVSWYQQKPGQAPRLLIYGASNRYLGIPARFSGSGSGTDFTLTISSLEPEDFAVYYCSQSYNYPYTFGQGTKLEIK"}},
  "key": {"mice": {"test_system": "mice", "assay_type": "in vivo, mouse"}, "cecal tissue explants": {"test_system": "cecal tissue explants", "details": "mouse, in vivo"}, "mouse footpads": {"test_system": "mouse footpads", "details": "for oedema induced by TcdB2: footpad injection of TcdB2, antagonist pre-treatment", "procedure": "The footpad toxin injection assay was performed as previously described. Briefly, mice were restrained in an incontinence pad and the footpad was held and subsequently injected using a 29.5G syringe into the plantar surface. […] Paw diameter changes were assessed by calculating a ratio relative to the un-injected foot. For each test toxin, 500 ng were administered in a volume of 20 μl of normal saline. Pharmacological assays were performed in female CDI mice, with pre-treatment with drugs 30 min to 1 h prior to toxin injection. For experiments involving transgenic mice, experiments were performed in male and female mice (age matched, 8-15 weeks)."}, "C. difficile 630 Δerm [1]": {"test_system": "C. difficile 630 Δerm", "assay": "C. difficile growth in vitro (OD600)", "details": "20 μM, 24 h"}, "C. difficile 630 Δerm [2]": {"test_system": "C. difficile 630 Δerm", "assay": "Antibiotic-treatment-induced CDI mouse model, C. difficile 630 Δerm", "details": "for histopathological scores: CDI mouse model, 630 Δerm, FIG. 4D; for histopathological scores / pathogen burden (C. difficile CFUs in faeces): WT mice; for pathogen burden (C. difficile CFUs in faeces): day 2 after infection"}, "[3]": {"test_system": "C. difficile M7404 (A-/B+)", "assay": "CDI mouse model, hypervirulent strain M7404 (TcdA-/TcdB2)", "details": "for fatality: CDI with M7404 (A-/B+), mice; for histopathological scores of colitis: surviving mice, CDI with M7404"}, "human brain pericytes": {"test_system": "human brain pericytes", "assay": "IL-8 secretion from cultured pericytes (ELISA)", "assay_type": "cell-based", "description": "Primary human cultured brain vascular pericytes (ScienCell, #1200) were routinely cultured in special medium with supplement, FBS and penicillin streptomycin provided by the cell's vendor (ScienCell, #1201). Cells were subcultured when confluent and used up to passage 10. For secretion assays these were performed on early passage cells (passages 3-8). Cytokine secretion in cell culture medium was determined using ELISA based assays against IL-8 (Biolegend, 431504). The effect of CGRP on cultured pericytes was determined by incubating pericytes for 1 h with human CGRPB (Cayman, 24725)."}, "[4]": {"details": "cecum injection of TcdB (6 μg), mice pretreated with antagonist 30 min to 1 h before, FIG. 4C"}},
  "note": "Entries after “also recorded” stand apart in the source; their conditions may differ. Read-outs that look alike come from different tables or passages of the source. No end group written: not given here.",
  "data": [
    {"molecule": "C=C(C)[C@]12C[C@@H](C)[C@@]34O[C@](Cc5ccccc5)(O[C@@H]1[C@@H]3C=C(COC(=O)Cc1ccc(O)c(OC)c1)C[C@]1(O)C(=O)C(C)=C[C@@H]41)O2", "note": "[RTX, resiniferatoxin]", "values": [
      {"measurement": "histopathology upon TcdB administration", "setting": "mice; mouse, in vivo", "value": "less severe histopathology"},
      {"measurement": "CGRP secretion", "setting": "cecal tissue explants", "value": "reduced"},
      {"measurement": "SP levels", "setting": "cecal tissue explants", "value": "reduced SP levels"}
    ]},
    {"molecule": "C[C@@H](O[C@H]1OCCN(Cc2n[nH]c(=O)[nH]2)[C@H]1c1ccc(F)cc1)c1cc(C(F)(F)F)cc(C(F)(F)F)c1", "note": "[aprepitant]", "values": [
      {"measurement": "oedema induced by TcdA", "setting": "mouse footpads; footpad injection of TcdA, antagonist pre-treatment", "value": "prevented; also recorded: blocked"},
      {"measurement": "oedema induced by TcdB2", "setting": "mouse footpads", "value": "prevented"},
      {"measurement": "oedema induced by TcdB2", "setting": "mouse footpads; listed as Aprepitant", "value": "can prevent oedema induced by TcdB2"},
      {"measurement": "oedema induced by TcdB", "setting": "mouse footpads; footpad injection of TcdB, antagonist pre-treatment", "value": "prevented oedema induced by TcdB"},
      {"measurement": "oedema induced by GTD-ciDT", "setting": "mouse footpads; footpad, Tac1-Cre mice infected with AAV-DTR", "value": "blocked"},
      {"measurement": "histopathological scores", "setting": "mice; [4]", "value": "reduced histopathological scores"},
      {"measurement": "C. difficile growth rate / fitness (OD600)", "setting": "C. difficile 630 Δerm [1]", "value": "not affected; also recorded: Neither drug influenced C. difficile growth rate"},
      {"measurement": "histopathological scores", "setting": "C. difficile 630 Δerm [2]", "value": "reduced histopathological scores"},
      {"measurement": "effect on C. difficile colonization and histopathological scores", "setting": "C. difficile 630 Δerm [2]; Tac1 KO mice", "value": "nor had an effect"},
      {"measurement": "pathogen burden (C. difficile CFUs in faeces)", "setting": "C. difficile 630 Δerm [2]", "value": "reduced pathogen burden"},
      {"measurement": "fatality", "setting": "[3]", "value": "markedly reduced"},
      {"measurement": "histopathological scores of colitis", "setting": "[3]", "value": "markedly reduced"}
    ]},
    {"molecule": "NCCCC[C@H](NC(=O)[C@@H](Cc1cc(Br)c(O)c(Br)c1)NC(=O)N1CCC(N2Cc3ccccc3NC2=O)CC1)C(=O)N1CCN(c2ccncc2)CC1", "note": "[olcegepant]", "values": [
      {"measurement": "oedema induced by TcdB2", "setting": "mouse footpads", "value": "can prevent oedema induced by TcdB2; also recorded: prevented"},
      {"measurement": "histopathological scores", "setting": "mice; [4]", "value": "reduced histopathological scores"},
      {"measurement": "C. difficile growth rate / fitness (OD600)", "setting": "C. difficile 630 Δerm [1]", "value": "not affected; also recorded: Neither drug influenced C. difficile growth rate"},
      {"measurement": "histopathological scores", "setting": "C. difficile 630 Δerm [2]", "value": "reduced histopathological scores"},
      {"measurement": "effect on C. difficile colonization and histopathological scores", "setting": "C. difficile 630 Δerm [2]; Calcb KO mice", "value": "nor had an effect"},
      {"measurement": "pathogen burden (C. difficile CFUs in faeces)", "setting": "C. difficile 630 Δerm [2]", "value": "reduced pathogen burden"},
      {"measurement": "fatality", "setting": "[3]", "value": "markedly reduced"},
      {"measurement": "histopathological scores of colitis", "setting": "[3]", "value": "markedly reduced"}
    ]},
    {"molecule": "CGRP: human CGRPβ (Cayman, 24725) added to cultured pericytes (ACNTATCVTHRLAGLLSRSGGMVKSNFVPTNVGSKAF; ends and bridges not checked; cysteine pairing not given here; UniProt P10092 82-118, looked up)", "values": [
      {"measurement": "IL-8 secretion", "setting": "human brain pericytes", "value": "induced secretion of IL-8"}
    ]},
    {"molecule": "substance P (RPKPQQFFGLM; not fully specified (C-terminus); ends and bridges not checked; UniProt P20366 58-68, looked up) [neuropeptide composed of a chain of 11 amino acids, tachykinin family]", "values": [
      {"measurement": "histopathological scores", "setting": "mice; mouse, in vivo", "value": "restored histopathological scores"},
      {"measurement": "susceptibility to TcdB (histopathology)", "setting": "mice; mouse, in vivo", "value": "restored the susceptibility"},
      {"measurement": "CGRP secretion", "setting": "cecal tissue explants", "value": "restored"}
    ]},
    {"molecule": "B1", "values": [
      {"measurement": "histopathological scores", "setting": "mice; mouse, in vivo", "value": "reduced histopathological scores"},
      {"measurement": "histopathological scores", "setting": "C. difficile 630 Δerm [2]", "value": "reduced histopathological scores"}
    ]}
  ]
}
